Measurements published in publication PMC3913857, “Regorafenib in Japanese patients with solid tumors: phase I study of safety, efficacy, and pharmacokinetics” (Investigational New Drugs, 2013).
Like-named read-outs stand apart in the source and are kept apart here.

Assays:
[1] = system: UDP-glucuronosyltransferase 1A9; parameters: method as in ref 11 = [11]; 11. Bayer HealthCare AG, data on file; conditions: in vitro, glucuronidation; cited from earlier work
[2] = Safety: adverse events (NCI CTCAE v3.0) and laboratory toxicities, Japan phase I study; parameters: species or system Japanese patients; conditions: in vivo
Method: (§1) All patients who received at least one dose of regorafenib were eligible for safety analyses and were included in the efficacy analyses if they also had post-baseline efficacy data. For the safety analysis, physical examination, vital signs, use of concomitant medications, and laboratory test data were reported, and patients were routinely monitored for adverse events, which were recorded with severity and relationship to study medication according to the National Cancer Institute Common Terminology Criteria for Adverse Events version 3.0. Tumor response was assessed every 8 weeks for the first 6 cycles and every 12 weeks after Cycle 6 by Response Evaluation Criteria in Solid Tumors version 1.0, using the same imaging techniques and methods as at baseline. The response rate was defined as the proportion of patients whose best response was a confirmed partial or complete response.
Unacceptable toxicity was defined as any of the following events occurring during Cycle 1 and considered to be related to study drug: grade 4 neutropenia (for ≥7 days); febrile neutropenia with grade 4 neutropenia and fever; grade 4 thrombocytopenia; grade 3 or 4 nonhematologic toxicities (excluding events considered to be tolerable by the investigator). If two of the first three or three of the first six patients treated with regorafenib experienced unacceptable toxicities during Cycle 1, the safety data were reviewed by the Data Monitoring Committee, which considered whether protocol amendments were needed to address any safety concerns before subsequent patients were treated.

[3] = parameters: method as in PMID 22421192, PMID 22568966; conditions: European phase I and II studies; cited from earlier work
[4] = parameters: method as in ref 7 = [7]; 7. Eisen T, Joenssu H, Nathan P Harper P, Wojtukiewicz M, Nicholson S, Bahl A, Tomczak P, Wagner A, Quinn D (2011) Phase II trial of the oral multi kinase inhibitor regorafenib (BAY 73-4506) as first-; conditions: European phase II study, advanced renal cell carcinoma, n = 49, cited from earlier work
[5] = parameters: method as in PMID 22421192; conditions: European phase I study, 160 mg cohort only, n = 12, cited from earlier work
[6] = system: cytochrome p450 3A4; parameters: method as in ref 11 = [11]; 11. Bayer HealthCare AG, data on file; conditions: in vitro; cited from earlier work
[7] = clinical; parameters: species or system Japanese patients; conditions: in vivo
Method: Patients who provided at least one evaluable pharmacokinetic sample were eligible for pharmacokinetic analyses.
Plasma concentrations of regorafenib and its metabolites were determined by fully validated liquid chromatography–tandem mass spectrometry after protein precipitation with acetonitrile/ammonium acetate buffer containing the internal standards [^2H3 ^15N] BAY 73-4506 (for regorafenib), [^2H3 ^15N] […] BAY 81-8752 (for the M5 metabolite).

[8] = system: treatment-refractory advanced solid tumors; assay: Tumor response (RECIST version 1.0), Japan phase I study; assay type: in vivo, Japanese patients
Method: as §1

[9] = any time after start of study treatment

For CNC(=O)c1cc(Oc2ccc(NC(=O)Nc3ccc(Cl)c(C(F)(F)F)c3)c(F)c2)ccn1 [Regorafenib], the Metabolizing enzyme [1] is listed as “UDP-glucuronosyltransferase 1A9 glucuronidation”, the “Biochemical abnormality: alkaline phosphatase (ALP) elevation” value ([2]; human) is listed as 93% and the “Biochemical abnormality: hypoalbuminemia” value ([2]; human) is listed as 93%. The “Biochemical abnormality: hypophosphatemia” value ([2]; human) was 80%, the “Biochemical abnormality: proteinuria” value ([2]; human) was 80% and the “Biochemical toxicity: ALP elevation, any grade” value ([2]; human) was 14 (93) n (%). The “Biochemical toxicity: ALP elevation, grade 3 or 4” value ([2]; human) was 2 (13) n (%), the “Biochemical toxicity: ALT elevation, any grade” value ([2]; human) was 12 (80) n (%) and the “Biochemical toxicity: ALT elevation, grade 3 or 4” value ([2]; human) was 3 (20) n (%). For the same compound, the “Biochemical toxicity: AST elevation, any grade” value ([2]; human) was 13 (87) n (%), the “Biochemical toxicity: AST elevation, grade 3 or 4” value ([2]; human) was 3 (20) n (%) and the “Biochemical toxicity: Hypoalbuminemia, any grade” value ([2]; human) was 14 (93) n (%). For the same compound, the “Biochemical toxicity: Hypoalbuminemia, grade 3 or 4” value ([2]; human) was 0 n (%), the “Biochemical toxicity: Hypocalcemia, any grade” value ([2]; human) was 9 (60) n (%) and the “Biochemical toxicity: Hypocalcemia, grade 3 or 4” value ([2]; human) was 0 n (%). The “Biochemical toxicity: Hypophosphatemia, any grade” value ([2]; human) was 12 (80) n (%), the “Biochemical toxicity: Hypophosphatemia, grade 3 or 4” value ([2]; human) was 4 (27) n (%) and the “Biochemical toxicity: Proteinuria, grade 3 or 4” value ([2]; human) was 1 (7) n (%). For the same compound, the “Incidence of biochemical toxicities: ALT, grade 3/4” value (from here on “Incidence … ALT, grade 3/4”) ([2]; human) was 20%, the “Incidence of biochemical toxicities: AST, all grades” value (“Incidence … AST, all grades” for short) ([2]; human) was 87% and the “Incidence of biochemical toxicities: AST, grade 3/4” value (from here on “Incidence … AST, grade 3/4”) ([2]; human) was 20%. The “Patients with at least one drug-related treatment-emergent adverse event of any grade” value ([2]; human) was 15 patients, the “Treatment discontinuation for adverse event: anemia” value ([2]; human) was 1 n and the “Treatment discontinuation for adverse event: liver enzyme elevation” value ([2]; human) was 1 n. The “Grade of drug-related adverse event resulting in treatment reduction or interruption: ALT elevation” value ([2]; human, 1 cycle) was 3, the “Grade of drug-related adverse event resulting in treatment reduction or interruption: AST elevation” value ([2]; human, 1 cycle) was 3 and the “Grade of drug-related adverse event resulting in treatment reduction or interruption: Hypertension” value ([2]; human, 1 cycle) was 2. For the same compound, the “Grade of drug-related adverse event resulting in treatment reduction or interruption: Leukopenia” value ([2]; human, 1 cycle) was 2, the “Grade of drug-related adverse event resulting in treatment reduction or interruption: Neutropenia” value ([2]; human, 1 cycle) was 3 and the “Grade of drug-related adverse event resulting in treatment reduction or interruption: Thrombocytopenia” value ([2]; human, 1 cycle) was 2. The “Grade of drug-related adverse event resulting in treatment reduction or interruption: ALT elevation” value ([2]; human, 2 cycle) was 4, the “Grade of drug-related adverse event resulting in treatment reduction or interruption: Hand–foot skin reaction” value ([2]; human, 2 cycle) was 3 and the “Grade of drug-related adverse event resulting in treatment reduction or interruption: Dental pulpitis” value ([2]; human, 3 cycle) was 2. For the same compound, the “Grade of drug-related adverse event resulting in treatment reduction or interruption: Diarrhea” value ([2]; human, 3 cycle) was 3, the “Grade of drug-related adverse event resulting in treatment reduction or interruption: Hand–foot skin reaction” value ([2]; human, 3 cycle) was 1 and the “Grade of drug-related adverse event resulting in treatment reduction or interruption: Hand–foot skin reaction (event cell empty, from line above)” value ([2]; human, 3 cycle) was 1. The “Grade of drug-related adverse event resulting in treatment reduction or interruption: Hand–foot skin reaction” value ([2]; human, 7 cycle) was 3, the “Grade of drug-related adverse event resulting in treatment reduction or interruption: Hand–foot skin reaction (event cell empty, from line above)” value ([2]; human, 9 cycle) was 1 and the “Grade of drug-related adverse event resulting in treatment reduction or interruption: Proteinuria” value ([2]; human, 9 cycle) was 3. The “Grade of drug-related adverse event resulting in treatment reduction or interruption: Proteinuria” value ([2]; human, 10 cycle) was 2, the “Grade of drug-related adverse event resulting in treatment reduction or interruption: Back pain” value ([2]; human, 11 cycle) was 3 and the “Grade of drug-related adverse event resulting in treatment reduction or interruption: Gingivitis” value ([2]; human, 18 cycle) was 2. The “Changes in vital signs or electrocardiogram findings” value [2] was “No clear changes”, the “Cycle delay (start of next cycle delayed longer than 7 days) because of adverse events” value [2] was “four” and the “Dose reduction because of adverse events” value [2] was “six”. The “Drug-related adverse events leading to dose interruption or dose reduction” value [2] was “eight”, the “Interruption of regorafenib during daily treatment because of adverse events” value [2] was “seven” and the Serious adverse events [2] was “six”. The “Serious adverse events deemed treatment-related” value [2] was “three”, the Treatment-related deaths [2] was “No treatment-related deaths” and the “Frequency of hand–foot skin reaction” value [3] was 67–71%. The “Incidence of biochemical toxicities: ALT, all grades” value [4, 9] was 39%, the “Incidence … ALT, grade 3/4” value [4, 9] was 2% and the “Incidence … AST, all grades” value [4, 9] was 41%. For the same compound, the “Incidence … AST, grade 3/4” value [4, 9] was 2%, the “Adverse events: Alopecia, all grades” value ([4]; untreated) was 45% and the “Adverse events: Alopecia, grade 3/4” value ([4]; untreated) was 0%. The “Adverse events: Anorexia, all grades” value ([4]; untreated) was 29%, the “Adverse events: Anorexia, grade 3/4” value ([4]; untreated) was 6% and the “Adverse events: Diarrhea, all grades” value ([4]; untreated) was 45%. For the same compound, the “Adverse events: Diarrhea, grade 3/4” value ([4]; untreated) was 10%, the “Adverse events: Fatigue, all grades” value ([4]; untreated) was 53% and the “Adverse events: Fatigue, grade 3/4” value ([4]; untreated) was 8%. For the same compound, the “Adverse events: Hand–foot skin reaction, all grades” value ([4]; untreated) was 71%, the “Adverse events: Hand–foot skin reaction, grade 3/4” value ([4]; untreated) was 33% and the “Adverse events: Hypertension, all grades” value ([4]; untreated) was 49%. The “Adverse events: Hypertension, grade 3/4” value ([4]; untreated) was 6%, the “Adverse events: Rash, all grades” value ([4]; untreated) was 39% and the “Adverse events: Rash, grade 3/4” value ([4]; untreated) was 6%. The “Adverse events: Voice changes/hoarseness, all grades” value ([4]; untreated) was 35%, the “Adverse events: Voice changes/hoarseness, grade 3/4” value ([4]; untreated) was 0% and the “Incidence of biochemical toxicities: ALT, all grades” value [5, 9] was 75%. For the same compound, the “Incidence … ALT, grade 3/4” value [5, 9] was 25%, the “Incidence … AST, all grades” value [5, 9] was 75% and the “Incidence … AST, grade 3/4” value [5, 9] was 25%. For the same compound, the “Adverse events: Alopecia, all grades” value [5] was 33%, the “Adverse events: Alopecia, grade 3/4” value [5] was 0% and the “Adverse events: Anorexia, all grades” value [5] was 50%. The “Adverse events: Anorexia, grade 3/4” value [5] was 8%, the “Adverse events: Diarrhea, all grades” value [5] was 50% and the “Adverse events: Diarrhea, grade 3/4” value [5] was 17%. For the same compound, the “Adverse events: Fatigue, all grades” value [5] was 17%, the “Adverse events: Fatigue, grade 3/4” value [5] was 0% and the “Adverse events: Hand–foot skin reaction, all grades” value [5] was 67%. The “Adverse events: Hand–foot skin reaction, grade 3/4” value [5] was 25%, the “Adverse events: Hypertension, all grades” value [5] was 50% and the “Adverse events: Hypertension, grade 3/4” value [5] was 17%. The “Adverse events: Rash, all grades” value [5] was 50%, the “Adverse events: Rash, grade 3/4” value [5] was 8% and the “Adverse events: Voice changes/hoarseness, all grades” value [5] was 42%. The “Adverse events: Voice changes/hoarseness, grade 3/4” value [5] was 0%, the Metabolizing enzyme [6] was “metabolized by cytochrome p450 3A4” and the AUC ([7]; human, po, 160 mg) was 34600 ng·h/mL. The AUC(0-t) ([7]; human, po, 160 mg) was 16400 ng·h/mL, the Cmax ([7]; human, po, 160 mg) was 1370 ng/mL and the “t 1/2 (terminal half life)” value ([7]; human, po, 160 mg) was 27.4 (29.9) h. The t max ([7]; human, po, 160 mg) was 4 h, the half-life ([7]; human, po, 160 mg, t 1/2 (terminal half life)) was about 27 h and the AUC(0-t) ([7]; human, Cycle 1 day 21, regorafenib 160 mg once daily for 21 days, N = 12, geometric mean (% coefficient of variance), read-out: AUC0–24) was 33000 ng·h/mL. The Cmax ([7]; human, Cycle 1 day 21, regorafenib 160 mg once daily for 21 days, N = 12, geometric mean (% coefficient of variance), read-out: C max) was 2520 ng/mL, the half-life ([7]; human, Cycle 1 day 21, regorafenib 160 mg once daily for 21 days, N = 12, geometric mean (% coefficient of variance), read-out: t 1/2 (terminal half life) (converted)) was 30.4 h and the t max ([7]; human, Cycle 1 day 21, regorafenib 160 mg once daily for 21 days, N = 12, median (range), read-out: t max) was 3.6 h. The “Change in t max and t 1/2 between single dosing and 21-day multiple dosing” value [7] was “no significant change”, the Complete response ([8]; 15 patients) was “no patient” and the Overall response rate ([8]; 15 patients, 95 % confidence interval 0.2–31.9 %) was 7%. The “Median time to progression” value ([8]; 95 % confidence interval 1.9–12.4 months) was 3.7 months and the “Duration of response (partial response)” value ([8]; one patient, pancreatic neuroendocrine tumor) was 10.5 months.
